This note sets out measurements from publication PMC7224190, “Pharmacological inhibition of PRMT7 links arginine monomethylation to the cellular stress response” (Nature Communications, 2020).

Common to all, as to assay: biochemical
Parameters in all cases: radiometric methyltransferase selectivity assay with tritiated SAM, per cent activity
Conditions in all cases: read-out: % of control remaining

In one test the target is DOT1L (Homo sapiens, UniProt Q8TEK3). As to the method: (§1) The methyltransferase selectivity was assessed at two compound concentrations of 1 and 10 μM by radiometric assays using tritiated-SAM. For methyltransferases: MLL1, MLL3, EZH1 (PRC2), and EZH2 (PRC2), G9a, GLP, SUV39H1, SUV39H2, SUV420H1, SUV420H2, SETD2, SETD8, SETDB1, SETD7, PRMT1, PRMT3, PRMT4, PRMT5/ MEP50 complex, PRMT6, PRMT7, PRMT8, PRMT9, PRDM9, SMYD2, SMYD3, DNMT1, and BCDIN3D the incorporation of a tritium-labeled methyl group into biotinylated substrate was monitored using scintillation proximity assay (SPA). Briefly, a 10 μL reaction containing ^3H-SAM and substrate at concentrations close to the apparent Km values for each enzyme (balanced conditions) was prepared. The reactions were quenched with 10 μL of 7.5 M guanidine hydrochloride; 180 μL of 20 mM Tris buffer (pH 8.0) were added, and the mixture was transferred to a 96-well FlashPlate and incubated for 1 h. The counts per minute (CPM) was measured on a TopCount plate reader. The CPM in the absence of compound or enzyme was defined as 100% activity and background (0%), respectively, for each dataset[74]–[76]. Selectivity of SGC8158 against 342 kinases was evaluated in a kinase panel TR-FRET assay at 1 and 0.1 μM compound in duplicates as described before. Briefly, tagged kinases were incubated with compound and staurosporine-based fluorescent probe where the binding was detected using Tb conjugated anti-tag antibody energy transfer to the probe. Excitation wavelength was 337 nm and fluorescent emission signal was measured for Tb (486 nm) and fluorescent probe (BODIPY, 515 nm). Specific and non-specific binding was determined in the absence and presence of unlabeled staurosporine.

The target in another test is T1, MLL1 (Homo sapiens, UniProt Q03164).
T1 construct: gene KMT2A
As for the experimental part:
as §1

In another test the target is NSD1 (Homo sapiens, UniProt Q96L73). As to the method: as §1
The target in a further test is PRMT3 (Homo sapiens, UniProt O60678). As to the method: as §1
A further test has as its target T2, PRMT4 (Homo sapiens, UniProt Q86X55).
T2 construct: gene CARM1
T2 sequence (Q86X55 1-608): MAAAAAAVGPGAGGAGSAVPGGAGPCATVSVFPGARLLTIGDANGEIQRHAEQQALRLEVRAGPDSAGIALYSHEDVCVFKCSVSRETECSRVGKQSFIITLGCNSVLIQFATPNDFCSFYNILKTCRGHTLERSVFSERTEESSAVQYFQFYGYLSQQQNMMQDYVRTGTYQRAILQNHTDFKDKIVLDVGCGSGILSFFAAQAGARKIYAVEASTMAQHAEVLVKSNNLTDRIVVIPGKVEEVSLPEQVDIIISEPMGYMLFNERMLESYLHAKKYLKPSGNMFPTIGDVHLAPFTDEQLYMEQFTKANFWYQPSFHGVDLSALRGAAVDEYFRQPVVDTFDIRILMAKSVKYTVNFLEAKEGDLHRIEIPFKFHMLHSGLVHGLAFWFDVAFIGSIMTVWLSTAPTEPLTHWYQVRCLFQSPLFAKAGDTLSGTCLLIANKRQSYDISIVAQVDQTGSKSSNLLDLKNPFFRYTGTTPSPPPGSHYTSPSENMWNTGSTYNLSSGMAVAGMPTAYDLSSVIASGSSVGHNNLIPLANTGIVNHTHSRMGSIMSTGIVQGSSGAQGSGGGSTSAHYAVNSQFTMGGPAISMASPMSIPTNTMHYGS
As for the experimental part: as §1

Another test has as its target T3, PRMT9 (Homo sapiens, UniProt Q6P2P2).
T3 sequence (Q6P2P2 1-845): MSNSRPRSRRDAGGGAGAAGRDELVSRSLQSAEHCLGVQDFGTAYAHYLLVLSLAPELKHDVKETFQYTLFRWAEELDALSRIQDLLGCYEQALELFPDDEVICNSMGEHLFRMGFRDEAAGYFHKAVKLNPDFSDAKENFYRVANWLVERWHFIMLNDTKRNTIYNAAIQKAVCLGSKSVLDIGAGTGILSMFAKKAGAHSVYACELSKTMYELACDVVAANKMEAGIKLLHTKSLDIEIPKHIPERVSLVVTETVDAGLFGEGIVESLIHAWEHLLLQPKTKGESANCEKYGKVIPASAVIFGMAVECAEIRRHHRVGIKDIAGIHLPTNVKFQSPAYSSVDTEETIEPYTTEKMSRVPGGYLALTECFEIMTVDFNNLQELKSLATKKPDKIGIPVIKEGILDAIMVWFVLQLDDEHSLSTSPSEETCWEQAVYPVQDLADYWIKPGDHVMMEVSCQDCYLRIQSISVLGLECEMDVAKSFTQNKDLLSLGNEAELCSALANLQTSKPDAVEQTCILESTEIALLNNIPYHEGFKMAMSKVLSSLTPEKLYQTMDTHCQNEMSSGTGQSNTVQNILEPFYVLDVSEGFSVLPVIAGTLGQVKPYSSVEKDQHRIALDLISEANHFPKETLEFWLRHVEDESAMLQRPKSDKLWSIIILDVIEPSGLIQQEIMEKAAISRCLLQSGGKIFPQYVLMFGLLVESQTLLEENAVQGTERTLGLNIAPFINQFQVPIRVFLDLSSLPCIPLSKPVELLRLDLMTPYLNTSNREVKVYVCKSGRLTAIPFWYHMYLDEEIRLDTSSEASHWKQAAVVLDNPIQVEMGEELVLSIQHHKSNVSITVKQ
As for the experimental part:
as §1

The target of the next test is T4, SUV420H1 (Homo sapiens, UniProt Q4FZB7).
T4 construct: gene KMT5B
As to the method: as §1

Another test has as its target T5, SUV420H2 (Homo sapiens, UniProt Q86Y97).
T5 construct: gene KMT5C
As for the experimental part: as §1

T4 sequence (Q4FZB7 whole entry): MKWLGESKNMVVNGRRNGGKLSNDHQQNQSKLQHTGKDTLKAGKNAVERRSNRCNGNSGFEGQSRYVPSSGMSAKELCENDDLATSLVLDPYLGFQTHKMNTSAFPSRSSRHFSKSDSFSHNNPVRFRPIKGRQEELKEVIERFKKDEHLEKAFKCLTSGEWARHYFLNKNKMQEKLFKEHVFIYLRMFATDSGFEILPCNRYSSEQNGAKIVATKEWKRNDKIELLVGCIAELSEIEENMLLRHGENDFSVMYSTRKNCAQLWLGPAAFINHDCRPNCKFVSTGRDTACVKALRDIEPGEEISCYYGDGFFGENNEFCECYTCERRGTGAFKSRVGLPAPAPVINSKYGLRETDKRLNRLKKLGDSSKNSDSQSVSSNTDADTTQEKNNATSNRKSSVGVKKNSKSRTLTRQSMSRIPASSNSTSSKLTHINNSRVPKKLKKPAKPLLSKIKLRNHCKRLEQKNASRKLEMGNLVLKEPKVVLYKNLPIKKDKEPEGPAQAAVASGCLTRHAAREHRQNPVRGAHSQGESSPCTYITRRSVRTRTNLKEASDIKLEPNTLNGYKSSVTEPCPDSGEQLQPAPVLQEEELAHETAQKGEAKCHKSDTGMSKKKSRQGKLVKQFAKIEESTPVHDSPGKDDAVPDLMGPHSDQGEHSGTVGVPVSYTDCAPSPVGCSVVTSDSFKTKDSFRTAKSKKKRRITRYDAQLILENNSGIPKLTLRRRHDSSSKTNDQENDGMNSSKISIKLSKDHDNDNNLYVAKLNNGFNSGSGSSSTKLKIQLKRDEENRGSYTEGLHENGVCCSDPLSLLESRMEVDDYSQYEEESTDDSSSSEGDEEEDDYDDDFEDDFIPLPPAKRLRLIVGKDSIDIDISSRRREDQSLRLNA
T1 sequence (Q03164 whole entry): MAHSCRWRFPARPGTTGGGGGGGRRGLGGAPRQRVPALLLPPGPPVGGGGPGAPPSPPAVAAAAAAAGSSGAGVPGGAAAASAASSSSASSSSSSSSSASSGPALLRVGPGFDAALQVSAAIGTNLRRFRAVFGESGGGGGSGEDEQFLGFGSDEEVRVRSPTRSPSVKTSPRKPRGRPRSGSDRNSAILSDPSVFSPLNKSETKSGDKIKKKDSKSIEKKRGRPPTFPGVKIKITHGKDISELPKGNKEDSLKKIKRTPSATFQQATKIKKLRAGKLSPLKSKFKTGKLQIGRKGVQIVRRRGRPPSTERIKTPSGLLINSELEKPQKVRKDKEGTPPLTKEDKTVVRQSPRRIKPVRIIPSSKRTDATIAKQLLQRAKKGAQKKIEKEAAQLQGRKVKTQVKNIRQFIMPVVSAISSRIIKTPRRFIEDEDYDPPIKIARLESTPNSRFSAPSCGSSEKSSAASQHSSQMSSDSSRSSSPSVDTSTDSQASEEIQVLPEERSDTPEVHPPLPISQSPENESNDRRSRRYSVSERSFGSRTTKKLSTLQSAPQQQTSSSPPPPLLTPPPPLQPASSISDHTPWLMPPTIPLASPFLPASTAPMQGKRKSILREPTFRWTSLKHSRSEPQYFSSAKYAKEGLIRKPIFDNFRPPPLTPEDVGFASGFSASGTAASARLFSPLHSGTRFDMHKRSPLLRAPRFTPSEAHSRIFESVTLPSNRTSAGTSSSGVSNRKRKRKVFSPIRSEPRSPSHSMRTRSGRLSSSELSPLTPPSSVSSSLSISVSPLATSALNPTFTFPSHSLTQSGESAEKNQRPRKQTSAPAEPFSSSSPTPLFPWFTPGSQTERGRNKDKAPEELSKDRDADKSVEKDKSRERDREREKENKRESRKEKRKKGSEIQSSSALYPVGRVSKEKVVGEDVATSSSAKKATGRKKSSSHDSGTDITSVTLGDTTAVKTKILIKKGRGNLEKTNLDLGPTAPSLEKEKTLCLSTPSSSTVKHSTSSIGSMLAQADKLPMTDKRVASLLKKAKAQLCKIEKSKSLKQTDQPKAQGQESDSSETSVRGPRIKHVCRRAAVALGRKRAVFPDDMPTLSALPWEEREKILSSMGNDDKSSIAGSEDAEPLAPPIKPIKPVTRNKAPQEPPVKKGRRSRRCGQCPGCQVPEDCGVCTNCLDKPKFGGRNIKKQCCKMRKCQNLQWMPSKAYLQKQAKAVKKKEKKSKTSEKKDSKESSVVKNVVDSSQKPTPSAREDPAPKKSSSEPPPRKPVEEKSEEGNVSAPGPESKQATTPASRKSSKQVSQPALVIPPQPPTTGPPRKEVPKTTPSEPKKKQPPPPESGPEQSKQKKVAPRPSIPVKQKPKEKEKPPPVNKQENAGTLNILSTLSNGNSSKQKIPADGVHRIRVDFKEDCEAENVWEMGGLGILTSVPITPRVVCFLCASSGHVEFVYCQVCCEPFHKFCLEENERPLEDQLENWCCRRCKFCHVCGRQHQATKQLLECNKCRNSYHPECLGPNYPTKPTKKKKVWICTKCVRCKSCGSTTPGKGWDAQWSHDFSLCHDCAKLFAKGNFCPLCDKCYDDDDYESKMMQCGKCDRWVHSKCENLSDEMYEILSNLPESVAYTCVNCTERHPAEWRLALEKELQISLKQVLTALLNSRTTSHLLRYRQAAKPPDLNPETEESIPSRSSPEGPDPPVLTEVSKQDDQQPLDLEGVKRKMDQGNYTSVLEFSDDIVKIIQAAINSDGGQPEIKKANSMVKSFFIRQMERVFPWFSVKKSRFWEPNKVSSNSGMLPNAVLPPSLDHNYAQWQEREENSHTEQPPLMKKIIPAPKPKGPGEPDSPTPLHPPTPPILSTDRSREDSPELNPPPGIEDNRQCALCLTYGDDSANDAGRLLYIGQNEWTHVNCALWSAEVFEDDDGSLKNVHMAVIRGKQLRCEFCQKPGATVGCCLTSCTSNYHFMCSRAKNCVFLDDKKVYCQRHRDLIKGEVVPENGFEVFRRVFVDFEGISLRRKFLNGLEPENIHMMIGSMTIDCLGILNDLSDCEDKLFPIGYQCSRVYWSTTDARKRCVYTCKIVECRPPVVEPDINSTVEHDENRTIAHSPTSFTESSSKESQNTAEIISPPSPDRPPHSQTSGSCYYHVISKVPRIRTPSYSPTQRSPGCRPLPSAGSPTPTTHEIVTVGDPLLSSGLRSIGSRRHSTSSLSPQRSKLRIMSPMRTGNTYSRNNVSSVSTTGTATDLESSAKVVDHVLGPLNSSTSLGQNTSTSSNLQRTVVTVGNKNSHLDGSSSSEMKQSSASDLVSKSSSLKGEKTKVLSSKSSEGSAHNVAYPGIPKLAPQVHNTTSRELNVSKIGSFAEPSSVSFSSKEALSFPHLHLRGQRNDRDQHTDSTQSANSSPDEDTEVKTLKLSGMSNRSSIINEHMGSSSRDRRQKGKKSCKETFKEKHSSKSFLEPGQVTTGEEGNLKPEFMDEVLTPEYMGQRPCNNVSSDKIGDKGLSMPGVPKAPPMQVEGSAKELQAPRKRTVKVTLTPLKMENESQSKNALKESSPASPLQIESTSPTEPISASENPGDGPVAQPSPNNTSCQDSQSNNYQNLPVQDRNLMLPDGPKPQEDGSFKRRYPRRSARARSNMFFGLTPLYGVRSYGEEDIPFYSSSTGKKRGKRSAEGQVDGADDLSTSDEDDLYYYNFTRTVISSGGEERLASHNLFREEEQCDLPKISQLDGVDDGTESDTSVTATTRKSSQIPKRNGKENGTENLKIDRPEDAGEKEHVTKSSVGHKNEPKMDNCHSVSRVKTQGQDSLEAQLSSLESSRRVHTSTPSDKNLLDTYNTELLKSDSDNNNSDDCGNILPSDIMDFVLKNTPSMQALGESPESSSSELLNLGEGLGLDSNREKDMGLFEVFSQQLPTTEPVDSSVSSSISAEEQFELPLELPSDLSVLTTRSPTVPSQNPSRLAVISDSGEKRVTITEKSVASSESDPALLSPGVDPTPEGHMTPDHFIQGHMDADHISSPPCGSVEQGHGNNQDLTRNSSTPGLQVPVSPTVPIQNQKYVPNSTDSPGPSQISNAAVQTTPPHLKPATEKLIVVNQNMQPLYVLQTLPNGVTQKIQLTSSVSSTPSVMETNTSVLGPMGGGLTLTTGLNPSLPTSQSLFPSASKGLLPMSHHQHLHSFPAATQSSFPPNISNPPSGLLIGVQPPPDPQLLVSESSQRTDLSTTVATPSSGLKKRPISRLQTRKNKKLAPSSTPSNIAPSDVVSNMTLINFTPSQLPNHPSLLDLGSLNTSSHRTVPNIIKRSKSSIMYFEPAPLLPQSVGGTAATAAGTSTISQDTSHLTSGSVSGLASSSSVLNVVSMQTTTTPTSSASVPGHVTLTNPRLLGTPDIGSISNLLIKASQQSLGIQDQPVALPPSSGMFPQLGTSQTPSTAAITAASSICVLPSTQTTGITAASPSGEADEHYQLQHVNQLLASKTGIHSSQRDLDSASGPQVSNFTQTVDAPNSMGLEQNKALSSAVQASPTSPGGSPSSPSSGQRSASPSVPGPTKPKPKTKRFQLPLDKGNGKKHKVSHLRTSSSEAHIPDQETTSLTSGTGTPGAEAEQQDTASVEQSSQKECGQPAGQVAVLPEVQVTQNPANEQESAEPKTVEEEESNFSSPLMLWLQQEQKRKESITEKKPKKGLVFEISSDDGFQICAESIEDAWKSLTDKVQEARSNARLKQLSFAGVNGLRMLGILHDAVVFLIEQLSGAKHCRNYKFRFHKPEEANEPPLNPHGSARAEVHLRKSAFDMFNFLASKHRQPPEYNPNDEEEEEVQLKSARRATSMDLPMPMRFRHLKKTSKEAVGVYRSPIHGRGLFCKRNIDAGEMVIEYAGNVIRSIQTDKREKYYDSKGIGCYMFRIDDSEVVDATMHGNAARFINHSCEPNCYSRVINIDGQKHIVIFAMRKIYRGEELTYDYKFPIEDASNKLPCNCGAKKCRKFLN

For the compound `CC1(C)O[C@@H]2[C@H](O1)[C@@H](CSCCCCNCc1cccc(-c3ccc(Cl)cc3)c1)O[C@H]2n1cnc2c(N)ncnc21` [SGC8158N], the remaining activity at 1 µM on DOT1L is 97%; on MLL1 it was 101%; on NSD1, 99%; on PRMT3 it was 96%; on PRMT4, 101%; on PRMT9, 106%. Moreover, the values for the remaining activity at 1 µM at SUV420H1 and on SUV420H2 were 99% and 102%, respectively. In addition, the remaining activity at 10 µM on DOT1L worked out at 95%; at MLL1 it was 98%; on NSD1, 98%; on PRMT3, 96%; at PRMT4, 100%; on PRMT9, 95%. Moreover, the figures for the remaining activity at 10 µM at SUV420H1 and at SUV420H2 were 102% and 101%, respectively.
For the compound `Nc1ncnc2c1ncn2[C@@H]1O[C@H](CSCCCCNCc2cccc(-c3ccc(Cl)cc3)c2)[C@@H](O)[C@H]1O` [SGC8158], the remaining activity at 1 µM at DOT1L was 58%; on MLL1, 106%; at NSD1 it was 104%; at PRMT3, 57%; on PRMT4, 7%; on PRMT9, 19%. Moreover, the remaining activity at 1 µM on SUV420H1 turned out to be 96%; on SUV420H2 it was 98%. For the same compound, the remaining activity at 10 µM is 13% on DOT1L; 99% at MLL1; 99% at NSD1; 6% at PRMT3; 0% at PRMT4; 4% on PRMT9. In addition, the remaining activity at 10 µM on SUV420H1 and at SUV420H2 was 87% in each case.
